Data taken from patent US7501430B2 (ArQule, Inc., priority 2006, dated 2009).

Molecular target: T1, mutant B-RAF (Homo sapiens, UniProt P15056, V600E)
T1 construct: purchased Upstate (Charlottesville, Va.)
Assay: RAF biochemical assay (MEK-1 phosphorylation, anti-phospho MEK1/2 detection)
Settings: for IC50: read-out: Mutant B-RAF IC50
Outline: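 Detection is by ELISA: after a 30 min room-temperature reaction, plate-captured GST-MEK-1 is probed with anti-phospho MEK1/2, then an AP-tagged secondary antibody with fluorescent Attophos read-out.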

T1 sequence (P15056 whole entry V600E): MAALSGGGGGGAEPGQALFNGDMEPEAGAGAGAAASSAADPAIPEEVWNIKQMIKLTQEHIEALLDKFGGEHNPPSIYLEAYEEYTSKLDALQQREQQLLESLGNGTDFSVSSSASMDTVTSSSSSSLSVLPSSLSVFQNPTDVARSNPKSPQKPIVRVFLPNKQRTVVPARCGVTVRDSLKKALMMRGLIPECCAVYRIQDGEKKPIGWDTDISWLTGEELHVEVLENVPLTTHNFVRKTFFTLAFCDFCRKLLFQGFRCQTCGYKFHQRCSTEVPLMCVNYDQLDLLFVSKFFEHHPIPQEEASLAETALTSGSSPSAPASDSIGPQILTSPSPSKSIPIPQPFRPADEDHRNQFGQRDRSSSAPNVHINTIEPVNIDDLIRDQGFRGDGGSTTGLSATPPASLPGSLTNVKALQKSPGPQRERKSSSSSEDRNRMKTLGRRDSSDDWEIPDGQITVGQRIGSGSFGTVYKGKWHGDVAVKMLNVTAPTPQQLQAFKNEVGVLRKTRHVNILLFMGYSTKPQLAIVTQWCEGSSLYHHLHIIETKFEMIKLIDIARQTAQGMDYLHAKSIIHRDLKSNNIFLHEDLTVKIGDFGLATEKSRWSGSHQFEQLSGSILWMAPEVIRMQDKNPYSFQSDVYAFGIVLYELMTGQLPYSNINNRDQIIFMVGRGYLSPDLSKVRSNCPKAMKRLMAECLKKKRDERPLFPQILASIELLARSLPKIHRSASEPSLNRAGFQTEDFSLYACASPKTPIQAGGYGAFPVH

Row | SMILES | IC50 [µM] | inhibition at 10 µM (@ 10 uM, read-out: Mutant B-RAF % inhibition) [%]
1 | Cc1ccc(S(=O)(=O)N2CCC(Nc3nccc(-c4c(-c5ccc(F)cc5)nc5occn45)n3)CC2)cc1 [Example 198, 4-[6-(4-fluorophenyl)imidazo[2,1-b][1,3]oxazol-5-yl]-N-{1-[(4-methylphenyl)sulfonyl]piperidin-4-yl}pyrimidin-2-amine] | 0.218 | 
2 | O=S(=O)(c1ccc(Cl)cc1)N1CCC(Nc2nccc(-c3c(-c4ccc(F)cc4)nc4occn34)n2)CC1 [Example 199, N-{1-[(4-chlorophenyl)sulfonyl]piperidin-4-yl}-4-[6-(4-fluorophenyl)imidazo[2,1-b][1,3]oxazol-5-yl]pyrimidin-2-amine] | 0.092 | 
3 | COc1ccc(S(=O)(=O)N2CCC(Nc3nccc(-c4c(-c5ccc(F)cc5)nc5occn45)n3)CC2)cc1 [Example 200, 4-[6-(4-fluorophenyl)imidazo[2,1-b][1,3]oxazol-5-yl]-N-{1-[(4-methoxyphenyl)sulfonyl]piperidin-4-yl}pyrimidin-2-amine] | 0.115 | 
4 | CC(C)c1ccc(S(=O)(=O)N2CCC(Nc3nccc(-c4c(-c5ccc(F)cc5)nc5occn45)n3)CC2)cc1 [Example 201, 4-[6-(4-fluorophenyl)imidazo[2,1-b][1,3]oxazol-5-yl]-N-{1-[(4-isopropylphenyl)sulfonyl]piperidin-4-yl}pyrimidin-2-amine] | 0.42 | 
5 | O=S(=O)(c1cccc(C(F)(F)F)c1)N1CCC(Nc2nccc(-c3c(-c4ccc(F)cc4)nc4occn34)n2)CC1 [Example 202, 4-[6-(4-fluorophenyl)imidazo[2,1-b][1,3]oxazol-5-yl]-N-(1-{[3-(trifluoromethyl)phenyl]sulfonyl}piperidin-4-yl)pyrimidin-2-amine] | 0.84 | 
6 | O=S(=O)(c1ccc(OC(F)(F)F)cc1)N1CCC(Nc2nccc(-c3c(-c4ccc(F)cc4)nc4occn34)n2)CC1 [Example 203, 4-[6-(4-fluorophenyl)imidazo[2,1-b][1,3]oxazol-5-yl]-N-(1-{[4-(trifluoromethoxy)phenyl]sulfonyl}piperidin-4-yl)pyrimidin-2-amine] | 0.521 | 
7 | O=S(=O)(c1ccc(F)c(Cl)c1)N1CCC(Nc2nccc(-c3c(-c4ccc(F)cc4)nc4occn34)n2)CC1 [Example 204, N-{1-[(3-chloro-4-fluorophenyl)sulfonyl]piperidin-4-yl}-4-[-6-(4-fluorophenyl)imidazo[2,1-b][1,3]oxazol-5-yl]pyrimidin-2-amine] | 0.541 | 
8 | O=S(=O)(c1cc(Cl)cc(Cl)c1)N1CCC(Nc2nccc(-c3c(-c4ccc(F)cc4)nc4occn34)n2)CC1 [Example 205, N-{1-[(3,5-dichlorophenyl)sulfonyl]piperidin-4-yl}-4-[6-(4-fluorophenyl)imidazo[2,1-b][1,3]oxazol-5-yl]pyrimidin-2-amine] | 0.981 | 
9 | O=S(=O)(c1cccc(Cl)c1)N1CCC(Nc2nccc(-c3c(-c4ccc(F)cc4)nc4occn34)n2)CC1 [Example 206, N-{1-[(3-chlorophenyl)sulfonyl]piperidin-4-yl}-4-[6-(4-fluorophenyl)imidazo[2,1-b][1,3]oxazol-5-yl]pyrimidin-2-amine] | 0.329 | 
10 | O=S(=O)(c1cc(C(F)(F)F)cc(C(F)(F)F)c1)N1CCC(Nc2nccc(-c3c(-c4ccc(F)cc4)nc4occn34)n2)CC1 [Example 207, N-(1-{[3,5-bis(trifluoro-methyl)phenyl]sulfonyl}piperidin-4-yl)-4-[6-(4-fluorophenyl)imidazo[2,1-b][1,3]oxazol-5-yl]pyrimidin-2-amine] | 0.027 | 
11 | COc1cccc(-c2nc3sccn3c2-c2ccnc(NC3CCNCC3)n2)c1 [Example 208, 4-[6-(3-methoxyphenyl)imidazo[2,1-b][1,3]thiazol-5-yl]-N-piperidin-4-ylpyrimidin-2-amine] | 2.93 | 
12 | Nc1c(Cl)c(Cl)nc(C(=O)N2CCC(Nc3nccc(-c4c(-c5ccc(F)cc5)nc5occn45)n3)CC2)c1Cl [Example 209, N-{1-[(4-amino-3,5,6-trichloropyridin-2-yl)carbonyl]piperidin-4-yl}-4-[6-(4-fluorophenyl)imidazo[2,1-b][1,3]oxazol-5-yl]pyrimidin-2-amine] |  | 49
